We go through five molecules from patent KR20100130589A, “중독 치료에서의 aldh-2 저해제” (질레드 팔로 알토 인코포레이티드, priority 2008, dated 2009).

“Also recorded” adds a separate entry of the source.

For assay [1] the following is noted: in vivo; cited from earlier work.
Assay [2] deals with T1, human mitochondrial aldehyde dehydrogenase (ALDH-2) [인간 미토콘드리아 알데히드 디히드로게나아제 (ALDH-2)] (Homo sapiens, UniProt P05091).
T1 sequence (P05091 18-517): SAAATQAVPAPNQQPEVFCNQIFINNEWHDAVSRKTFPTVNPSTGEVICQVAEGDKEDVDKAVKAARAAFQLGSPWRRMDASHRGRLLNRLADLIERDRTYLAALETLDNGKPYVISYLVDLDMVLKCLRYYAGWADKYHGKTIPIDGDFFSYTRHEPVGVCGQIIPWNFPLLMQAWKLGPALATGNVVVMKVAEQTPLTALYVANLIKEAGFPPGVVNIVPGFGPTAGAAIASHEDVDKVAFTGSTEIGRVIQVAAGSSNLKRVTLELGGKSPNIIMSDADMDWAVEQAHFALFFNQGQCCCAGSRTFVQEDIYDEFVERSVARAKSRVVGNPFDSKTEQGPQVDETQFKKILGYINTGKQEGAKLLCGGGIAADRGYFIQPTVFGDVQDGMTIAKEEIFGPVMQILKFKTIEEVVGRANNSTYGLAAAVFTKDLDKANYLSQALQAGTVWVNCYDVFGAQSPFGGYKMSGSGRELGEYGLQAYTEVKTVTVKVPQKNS
To be noted: potency and selectivity in words; cited from earlier work.

The nature of assay [3]: Cocaine reinstatement (relapse) after extinction of intravenous cocaine self-administration. To be noted: rat; for effect on cocaine-induced relapse, compared with Compound A (result in words): tested similarly. The class given is in vivo, Sprague-Dawley rat.
The nature of assay [4]: Nicotine intravenous self-administration. The class given is in vivo, Wistar-derived rat. To be noted: rat, escalating doses 0.00, 7.5, 10 and 15 mg/kg ip, 30 min before session; Figure 1.

`O=c1c(-c2ccc(O)cc2)coc2cc(O)ccc12` [다이드진]: the “suppression of ethanol intake / absorption (in words)” value in assay [1] was “에탄올 흡수 억제에 유효한”. Also, the “inhibition of ALDH-2 (in words)” value in assay [2] was “강력하고 선택적인 저해제”.
For `O=c1c(-c2ccc(O)cc2)coc2cc(OCc3noc(-c4cc(F)cc(C(F)(F)F)c4)n3)ccc12` [7-({5-[3-플루오로-5-(트리플루오로메틸)페닐](1,2,4-옥사디아졸-3-일)}메톡시)-3-(4-히드록시페닐)크로멘-4-온], the “effect on cocaine-induced relapse, compared with Compound A (result in words)” value in assay [3] is “유사한 결과가 수득되었다”.
As to `O=C(O)c1cccc(-c2nc(COc3ccc4c(=O)c(-c5ccc(O)cc5)coc4c3)no2)c1` [3-(3-{[3-(4-히드록시페닐)-4-옥소크로멘-7-일옥시]메틸}-1,2,4-옥사디아졸-5-일)벤조산], in assay [3], the “effect on cocaine-induced relapse, compared with Compound A (result in words)” value was “유사한 결과가 수득되었다”.
For `O=c1c(-c2ccc(O)cc2)coc2cc(O[C@@H]3O[C@H](CO)[C@@H](O)[C@H](O)[C@H]3O)ccc12` [다이드진 (daidzein)], the “suppression of ethanol intake / absorption (in words)” value in assay [1] is reported as “에탄올 섭취 억제에 효과적인”.
As to `CS(=O)(=O)Nc1ccc(-c2coc3cc(OCc4cccc(C(=O)O)c4)ccc3c2=O)cc1` [3-[(3-{4-[(메틸술포닐)아미노]페닐}-4-옥소크로멘-7-일옥시)메틸]벤조산], in assay [3] (7.5 and 10 mg/kg before priming injection of cocaine (10 mg/kg)), the “lever press response after cocaine priming (effect in words)” value is reported as “지렛대 누름 반응에서 증가를 보여주지 않았다 (재발하지 않음)”. Moreover, the “cocaine relapse (effect in words)” value in assay [3] (ip, dose-dependent, cocaine priming 10 mg/kg) is listed as “투여량에 좌우되어 코카인에 대한 재발을 차단했다”. Also, the “number of bar presses for nicotine (plotted as number of infusions)” value in assay [4] is reported as “횟수를 감소시켰다; also recorded: 바아 프레스의 횟수를 감소시키는”.
